Series [1] concerns HepG2 cell. Nature of the series: HepG2 cell glucose/galactose shift model. The class given is cell-based, human.
In series [2] the target is T1, bile salt export pump (BSEP) (Homo sapiens, UniProt O95342).
T1 construct: host or cells: human hepatocytes in HEPATOPAC micropatterned co-culture
Description: HEPATOPAC taurocholic acid transport / bile acid excretion. Format: cell-based. The source says: The human HEPATOPAC model was also used to measure the effects of test agents on transport of taurocholic acid as an indicator of altered bile salt export pump (BSEP) function ([Li et al., 2017]). Safe dose perspective is gained from comparing in vitro concentration response results to calculated liver inlet Cmax (maximum plasma concentration).

Series [3] deals with T2, CGRP receptor (Homo sapiens, UniProt O60894+Q16602).
T2 construct: expressed in transfected cells; host or cells: HEK293
T2 sequence (Q16602 23-461): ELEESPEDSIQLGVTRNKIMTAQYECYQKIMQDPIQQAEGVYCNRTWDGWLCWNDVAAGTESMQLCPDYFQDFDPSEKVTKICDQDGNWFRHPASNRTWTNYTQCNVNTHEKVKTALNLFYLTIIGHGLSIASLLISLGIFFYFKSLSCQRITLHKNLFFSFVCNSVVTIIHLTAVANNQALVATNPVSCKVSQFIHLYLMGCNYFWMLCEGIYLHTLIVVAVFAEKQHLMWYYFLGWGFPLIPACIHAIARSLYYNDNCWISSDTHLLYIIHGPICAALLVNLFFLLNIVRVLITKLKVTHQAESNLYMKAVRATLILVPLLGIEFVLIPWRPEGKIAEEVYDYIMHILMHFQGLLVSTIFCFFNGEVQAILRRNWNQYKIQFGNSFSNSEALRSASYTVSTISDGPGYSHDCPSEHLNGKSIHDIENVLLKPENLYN
T2 sequence (O60894 27-148): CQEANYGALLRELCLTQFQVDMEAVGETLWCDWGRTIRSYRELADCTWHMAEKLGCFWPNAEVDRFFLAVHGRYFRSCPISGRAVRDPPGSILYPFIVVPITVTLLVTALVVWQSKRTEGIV
Description: CGRP-stimulated cAMP response in HEK293 cells. Format: cell-based. The note with it: read-out: Potency IC50.

For series [4], the system named is dog. Nature of the series: Conventional nonclinical toxicology study, dog. The note with it: 1M dog.
For series [5], the target named is T3, NTCP (Homo sapiens, UniProt Q14973).
T3 construct: expressed in transfected cells; host or cells: CHO (telcagepant); HEK293 (ubrogepant, MK-3207)
T3 sequence (Q14973 1-349): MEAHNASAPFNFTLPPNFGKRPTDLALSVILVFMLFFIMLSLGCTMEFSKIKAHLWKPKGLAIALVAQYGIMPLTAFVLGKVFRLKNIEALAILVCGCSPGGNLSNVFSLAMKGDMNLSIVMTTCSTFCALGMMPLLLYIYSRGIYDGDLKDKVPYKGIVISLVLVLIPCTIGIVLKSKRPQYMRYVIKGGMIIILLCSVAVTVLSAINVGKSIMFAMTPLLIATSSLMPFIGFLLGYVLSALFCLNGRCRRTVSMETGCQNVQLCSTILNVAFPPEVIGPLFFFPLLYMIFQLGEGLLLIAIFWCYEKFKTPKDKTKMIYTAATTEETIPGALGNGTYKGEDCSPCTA
Nature of the series: NTCP uptake transporter inhibition assay. Format: cell-based. The settings on record: for inhibition of NTCP-mediated probe substrate transport: uptake transporter inhibition assay. The protocol:
To assess the functional impact of ubrogepant on the human ABC efflux transporters BSEP, MRP3, and MRP4, in vitro vesicular transport inhibition assays were conducted by Solvo Biotechnology (Szeged, Hungary). The ability of ubrogepant to inhibit the BSEP-mediated transport (and accumulation) of a probe substrate was tested at concentrations ranging from 0.04 – 30 μM, where the latter defined the upper limit of compound solubility in the BSEP assay buffer. For the MRP3 and MRP4 vesicle-based transporter assessments, ubrogepant concentrations of 0.1 to 70 μM were used. To assess the functional impact of ubrogepant on the human SLC (uptake) transporter NTCP, in vitro experiments were performed using HEK293 cells stably expressing NTCP. The ability of ubrogepant to inhibit NTCP-mediated uptake (and accumulation) of taurocholate was tested at concentrations ranging from 0.04 – 30 μM.
To assess the functional impact of MK-3207 on the human ABC efflux transporters BSEP, MRP3 and MRP4, in vitro vesicular transport inhibition assays were conducted by Solvo Biotechnology (Szeged, Hungary) and overseen by DSSI. BSEP transport was assessed in the presence of 0.5-30 µM MK-3207; MRP3 and MRP4 transport was assessed in the presence of 0.11-80 µM MK-3207. The upper limits of these ranges were determined by compound solubility in each assay buffer. NTCP transporter inhibition was assessed in NTCP-expressing HEK293 cells in the presence of 0.03 – 25 µM MK-3207.

pIC50: −log10 of the molar value.

The term pIC50 denotes the negative decadic logarithm of the IC50, by convention in mol/L.

T1 sequence (O95342 whole entry): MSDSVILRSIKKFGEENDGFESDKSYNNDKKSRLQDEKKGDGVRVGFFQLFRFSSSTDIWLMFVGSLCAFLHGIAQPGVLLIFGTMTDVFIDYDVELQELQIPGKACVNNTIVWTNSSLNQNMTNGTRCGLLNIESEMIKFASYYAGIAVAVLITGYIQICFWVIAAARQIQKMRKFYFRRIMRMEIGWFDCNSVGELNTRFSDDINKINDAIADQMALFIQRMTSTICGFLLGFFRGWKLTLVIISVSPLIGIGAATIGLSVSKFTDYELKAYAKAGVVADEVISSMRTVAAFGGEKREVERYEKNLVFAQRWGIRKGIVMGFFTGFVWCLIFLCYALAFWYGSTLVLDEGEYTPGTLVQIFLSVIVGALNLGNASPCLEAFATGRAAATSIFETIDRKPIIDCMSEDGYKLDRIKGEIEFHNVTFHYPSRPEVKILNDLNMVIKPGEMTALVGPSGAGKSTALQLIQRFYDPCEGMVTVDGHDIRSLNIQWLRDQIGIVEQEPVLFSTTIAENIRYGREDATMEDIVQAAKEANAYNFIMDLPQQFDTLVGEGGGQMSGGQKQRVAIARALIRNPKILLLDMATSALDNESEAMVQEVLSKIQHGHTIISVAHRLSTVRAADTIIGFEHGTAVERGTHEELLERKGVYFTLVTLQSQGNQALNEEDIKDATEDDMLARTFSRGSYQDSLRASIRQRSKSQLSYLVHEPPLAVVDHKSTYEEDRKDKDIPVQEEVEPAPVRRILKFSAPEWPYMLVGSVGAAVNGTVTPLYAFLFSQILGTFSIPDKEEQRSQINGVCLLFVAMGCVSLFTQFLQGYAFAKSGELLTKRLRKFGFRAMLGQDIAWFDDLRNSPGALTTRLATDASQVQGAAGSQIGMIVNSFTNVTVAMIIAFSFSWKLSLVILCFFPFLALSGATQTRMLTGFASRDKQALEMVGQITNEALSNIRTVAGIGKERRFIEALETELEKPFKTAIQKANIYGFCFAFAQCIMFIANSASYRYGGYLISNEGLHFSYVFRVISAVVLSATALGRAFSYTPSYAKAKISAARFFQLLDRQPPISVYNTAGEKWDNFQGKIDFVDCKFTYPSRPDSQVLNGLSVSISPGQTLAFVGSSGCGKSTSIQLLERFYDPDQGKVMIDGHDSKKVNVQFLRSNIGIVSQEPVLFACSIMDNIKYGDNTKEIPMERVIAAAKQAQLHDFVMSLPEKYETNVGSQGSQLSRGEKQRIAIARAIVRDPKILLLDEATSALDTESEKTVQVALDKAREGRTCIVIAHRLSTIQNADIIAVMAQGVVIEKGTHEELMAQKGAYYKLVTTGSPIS

For `O=C(CN1C(=O)C2(CCCC2)NC[C@H]1c1cc(F)cc(F)c1)Nc1ccc2c(c1)C[C@@]1(C2)C(=O)Nc2ncccc21` [MK-3207], the mitochondrial toxicity potential result in series [1] is on record as “did not raise mitochondrial safety concerns”. In addition, in series [2] (4.4× estimated unbound liver Cmax (highest testable concentration, solubility)), the “effect on bile acid excretion” value is “no significant impact was observed on biliary excretion”. Moreover, the pIC50 in series [3] was 9.92. In series [4], the “Pivotal conventional nonclinical toxicology study liver findings” value was “slight periportal vacuolation with < 4× ALT/AST associated with excessive body weight loss” and the exposure margin stood at 17 ×. Moreover, the “inhibition of NTCP-mediated probe substrate transport” value in series [5] is given as “No inhibition was observed”.
With `C[C@@H]1[C@H](c2ccccc2)C[C@H](NC(=O)c2cnc3c(c2)C[C@@]2(C3)C(=O)Nc3ncccc32)C(=O)N1CC(F)(F)F` [Ubrogepant], the negative logarithm of the IC50 (pIC50) in series [3] was 10.10.
In the case of `O=C(N[C@@H]1CC[C@@H](c2cccc(F)c2F)CN(CC(F)(F)F)C1=O)N1CCC(n2c(=O)[nH]c3ncccc32)CC1` [Telcagepant], the mitochondrial toxicity potential result in series [1] is on record as “did not raise mitochondrial safety concerns”. The “effect on bile acid excretion” value in series [2] (10.7× estimated unbound liver Cmax) is given as “No effect on bile acid excretion”. This compound also returned an NTCP inhibition in series [5] (CHO cells expressing NTCP, up to 25 μM) above 50%. For the same compound, the negative logarithm of the IC50 (pIC50) in series [5] (taurocholate uptake, read-out: NTCP estimated IC50) is 4.71. The “inhibition of NTCP-mediated probe substrate transport” value in series [5] is listed as “inhibited”.

The values above are taken from article PMC8312697, “Mechanistic Investigations Support Liver Safety of Ubrogepant” (Toxicological Sciences, 2020).
